Measured values: patent US20090239920A1, “PHARMACEUTICAL FORMULATIONS OF AN ANHYDRATE CRYSTAL FORM OF 2-(3-FLUORO-4-HYDROXYPHENYL)-7-VINYL-1,3-BENZOXAZOL-5-OL” (WYETH, priority 2006, published 2009)

Test: Crystal form conversion of Form D suspended and stirred in solvent at room temperature for seven days
Type: physicochemical
Source text: The anhydrate crystal form (Form D) can be converted to other crystal forms under suitable conditions. […] 6, 2006).

C=Cc1cc(O)cc2nc(-c3ccc(O)c(F)c3)oc12 [Form D, 2-(3-fluoro-4-hydroxyphenyl)-7-vinyl-1,3-benzoxazol-5-ol]
crystal form conversion (polymorphic stability) (suspended and stirred in ethanol or acetone at room temperature for seven days): another anhydrate crystal form is obtained
crystal form conversion (polymorphic stability) (suspended and stirred in methanol at room temperature for seven days): another anhydrate crystal form is obtained
crystal form conversion (polymorphic stability) (suspended and stirred in water at room temperature for seven days): most of the anhydrate crystal form is converted to a hydrate crystal form
